Results published in patent US20060269950A1, “Method of identifying compounds that modulate interaction of androgen receptor with beta-catenin” (Wyeth, priority 2005, published 2006).

What was measured:
[1] = test system: estrogen receptor (ER) interaction with β-catenin; assay: One-hybrid GAL4-β-catenin luciferase reporter assay in CV-1 cells with ER expression plasmid; assay type: cell-based; details: 10 nM, 18 hours
Method: (§1) CV-1 cells were cultured on 96 well plates and transfected after 24 hours with the expression and reporter plasmids using the lipofectamine procedure (Invitrogen). In this procedure, the three different plasmid constructs used were mixed in cell culture media and lipofectamine and incubated for 15 minutes according to the manufacturer's instructions (Invitrogen). The plasmid-lipofectamine mixture was diluted in culture medium, added to cells, and incubated for 4 hours. The cells were rinsed and then treated with culture media. Twenty-four hours after transfection, the cells were treated with androgen agonists and antagonists or vehicle. After 18 hours, cell lysates were harvested and assayed for luciferase activity using luciferase reagent (Promega) and a luminometer (Wallac). Other known transfection techniques can be used including, for example, calcium phosphate precipitation transfection technique.
(§2) CV-1 cells were transfected with the 5XGAL4-luciferase reporter and the GAL4-O-catenin expression plasmid in the absence of a nuclear receptor expression vector (−), with the AR, PR, or ER expression plasmid. […] Cell lysates were harvested and analyzed for luciferase activity.

[2] = target: T1, progesterone receptor (PR) interaction with β-catenin (Homo sapiens, UniProt P06401); assay: One-hybrid GAL4-β-catenin luciferase reporter assay in CV-1 cells with PR expression plasmid; assay type: cell-based; details: 10 nM, 18 hours
T1 construct: expressed in transfected cells; host or cells: CV-1 cells
T1 sequence (P06401 1-933): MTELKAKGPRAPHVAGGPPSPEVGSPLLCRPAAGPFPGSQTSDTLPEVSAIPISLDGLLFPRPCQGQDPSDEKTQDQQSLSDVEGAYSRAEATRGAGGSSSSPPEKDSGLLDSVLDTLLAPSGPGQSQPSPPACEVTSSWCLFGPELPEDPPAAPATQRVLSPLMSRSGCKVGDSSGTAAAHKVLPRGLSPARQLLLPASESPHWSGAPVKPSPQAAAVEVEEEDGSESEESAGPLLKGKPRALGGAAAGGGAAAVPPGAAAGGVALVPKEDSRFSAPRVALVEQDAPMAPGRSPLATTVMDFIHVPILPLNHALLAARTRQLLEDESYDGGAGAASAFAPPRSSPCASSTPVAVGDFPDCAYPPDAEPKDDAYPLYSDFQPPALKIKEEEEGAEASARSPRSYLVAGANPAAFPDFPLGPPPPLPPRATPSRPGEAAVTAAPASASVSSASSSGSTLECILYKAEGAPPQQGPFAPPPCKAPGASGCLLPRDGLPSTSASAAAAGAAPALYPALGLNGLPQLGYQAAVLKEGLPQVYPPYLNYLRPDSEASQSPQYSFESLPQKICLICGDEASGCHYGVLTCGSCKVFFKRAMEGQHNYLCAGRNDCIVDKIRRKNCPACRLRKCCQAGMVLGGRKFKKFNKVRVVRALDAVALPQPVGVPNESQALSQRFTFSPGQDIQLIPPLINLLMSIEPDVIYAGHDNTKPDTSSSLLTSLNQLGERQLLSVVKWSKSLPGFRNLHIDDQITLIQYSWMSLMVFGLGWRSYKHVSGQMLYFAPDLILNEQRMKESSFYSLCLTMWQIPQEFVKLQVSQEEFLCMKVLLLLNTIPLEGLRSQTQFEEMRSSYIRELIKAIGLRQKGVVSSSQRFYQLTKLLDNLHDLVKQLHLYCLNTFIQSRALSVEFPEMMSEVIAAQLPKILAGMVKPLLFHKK
Method: as §1, §2

[3] = target: T2, interaction between AR and β-catenin (Mus musculus, UniProt P19091); assay: Co-immunoprecipitation of β-catenin followed by Western analysis for AR in L929 cells; details: 300 nM (30-fold excess) in presence of 10 nM DHT, 17 hours
T2 sequence (P19091 1-899): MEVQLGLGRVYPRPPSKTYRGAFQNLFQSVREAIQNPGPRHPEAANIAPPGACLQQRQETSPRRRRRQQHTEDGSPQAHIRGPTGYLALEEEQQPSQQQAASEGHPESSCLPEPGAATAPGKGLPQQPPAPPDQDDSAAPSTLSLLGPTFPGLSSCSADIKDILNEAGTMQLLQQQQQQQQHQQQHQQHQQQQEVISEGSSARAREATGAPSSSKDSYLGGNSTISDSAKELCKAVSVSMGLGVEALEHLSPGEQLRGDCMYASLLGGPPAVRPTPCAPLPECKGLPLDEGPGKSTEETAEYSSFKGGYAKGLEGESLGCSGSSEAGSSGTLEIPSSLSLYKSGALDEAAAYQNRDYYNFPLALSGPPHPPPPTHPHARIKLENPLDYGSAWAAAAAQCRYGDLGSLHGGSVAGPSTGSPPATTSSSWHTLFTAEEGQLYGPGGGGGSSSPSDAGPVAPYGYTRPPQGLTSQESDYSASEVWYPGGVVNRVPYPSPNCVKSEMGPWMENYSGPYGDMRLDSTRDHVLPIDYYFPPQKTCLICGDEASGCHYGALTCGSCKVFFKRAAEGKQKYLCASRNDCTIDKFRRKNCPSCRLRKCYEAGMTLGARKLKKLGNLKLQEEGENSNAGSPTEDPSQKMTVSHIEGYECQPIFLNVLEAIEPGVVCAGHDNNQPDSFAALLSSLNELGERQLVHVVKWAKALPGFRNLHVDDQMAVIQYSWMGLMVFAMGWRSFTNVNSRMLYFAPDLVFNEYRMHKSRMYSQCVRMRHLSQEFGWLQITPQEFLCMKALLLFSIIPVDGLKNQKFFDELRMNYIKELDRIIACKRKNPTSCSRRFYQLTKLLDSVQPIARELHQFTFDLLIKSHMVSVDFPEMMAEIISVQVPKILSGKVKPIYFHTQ
Method: Cell lysates were harvested, precleared with protein A/G sepharose, and β-catenin was immunoprecipitated using a goat polyclonal IgG against β-catenin conjugated to agarose (Santa Cruz Biotechnology). The immunoprecipitates were analyzed by polyacrylamide gel electrophoresis followed by Western analysis for AR and β-catenin (β-cat) as indicated using antibodies from Santa Cruz (FIG. 2).

[4] = target: T3, interaction between AR and β-catenin (Homo sapiens, UniProt P10275); assay: One-hybrid GAL4-β-catenin/AR luciferase reporter assay in CV-1 cells; assay type: cell-based, African green monkey; details: AR expressing CV-1 cells, 10 nM, 18 hours
T3 construct: The AR expression vector is human full length AR cDNA in pcDNA3; expressed in transfected cells; host or cells: CV-1 cells
T3 sequence (P10275 1-920): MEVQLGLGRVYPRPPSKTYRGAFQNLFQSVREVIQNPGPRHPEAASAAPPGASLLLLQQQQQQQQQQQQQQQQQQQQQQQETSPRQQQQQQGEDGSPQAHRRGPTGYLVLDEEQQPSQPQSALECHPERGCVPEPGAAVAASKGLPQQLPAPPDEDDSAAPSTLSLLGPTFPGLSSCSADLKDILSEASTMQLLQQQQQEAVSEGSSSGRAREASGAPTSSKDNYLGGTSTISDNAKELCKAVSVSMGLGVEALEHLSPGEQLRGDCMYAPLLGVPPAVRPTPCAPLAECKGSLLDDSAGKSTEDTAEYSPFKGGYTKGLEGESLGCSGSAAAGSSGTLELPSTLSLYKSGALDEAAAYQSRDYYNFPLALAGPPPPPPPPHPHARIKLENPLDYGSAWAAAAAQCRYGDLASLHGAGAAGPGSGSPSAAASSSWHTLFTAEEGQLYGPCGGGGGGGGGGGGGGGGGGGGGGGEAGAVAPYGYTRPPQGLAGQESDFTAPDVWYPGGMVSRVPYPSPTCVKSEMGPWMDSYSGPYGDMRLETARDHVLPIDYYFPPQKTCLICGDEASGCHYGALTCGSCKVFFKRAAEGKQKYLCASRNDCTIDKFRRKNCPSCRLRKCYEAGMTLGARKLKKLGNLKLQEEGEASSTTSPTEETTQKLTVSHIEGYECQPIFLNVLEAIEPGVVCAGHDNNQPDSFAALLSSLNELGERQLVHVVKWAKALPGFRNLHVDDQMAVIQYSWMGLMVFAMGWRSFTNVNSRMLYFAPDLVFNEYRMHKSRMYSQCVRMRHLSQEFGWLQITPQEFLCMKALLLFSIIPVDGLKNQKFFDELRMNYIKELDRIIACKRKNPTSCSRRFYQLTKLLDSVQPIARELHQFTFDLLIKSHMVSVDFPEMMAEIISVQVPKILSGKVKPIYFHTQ
Method: as §1
(§3) Cell lysates were harvested and analyzed for luciferase activity.
as §2, §3

SMILES	activity in the one-hybrid assay (reporter activity) [1]	activity in the one-hybrid assay (reporter activity) [2]	effect on DHT-stimulated AR/β-catenin protein-protein interaction [3]	reporter (luciferase) activity [4]
C[C@]12CC[C@@H]3c4ccc(O)cc4CC[C@H]3[C@@H]1CC[C@@H]2O [17β-estradiol]	no activity	no activity		
C[C@]12CCC(=O)C[C@@H]1CC[C@@H]1[C@@H]2CC[C@]2(C)[C@@H](O)CC[C@@H]12 [DHT, dihydrotestosterone]	no activity	no activity		
CC(C)(O)C(=O)Nc1ccc([N+](=O)[O-])c(C(F)(F)F)c1 [hydroxyflutamide]			attenuated	
C[C@H](O)C(=O)[C@@]1(C)CC[C@H]2[C@@H]3CCC4=CC(=O)CCC4=C3CC[C@@]21C [trimegestone]	no activity	no activity		not
